# Data as given in US20250230193A1, “CYCLIC COMPOUND HAVING SELECTIVE KRAS INHIBITORY EFFECT ON HRAS AND NRAS” (CHUGAI SEIYAKU KABUSHIKI KAISHA, priority 2022, published 2025).
# Where a SMILES comes first, the peptide text is derived from it. Bridges are numbered along the chain shown (N, C = ends). [ ]: non-standard residue; d: D form. The star is where a group is joined. hPhe(3-Cl-4-CF3) = N[C@@H](CCc1ccc(C(F)(F)F)c(Cl)c1)C(=O)O; NPrPhe(4-CF3) = CCCN[C@@H](Cc1ccc(C(F)(F)F)cc1)C(=O)O; NMeAbu(4,4,4-F3) = CN[C@@H](CC(F)(F)F)C(=O)O; NMeGly(cPent) = CN[C@H](C(=O)O)C1CCCC1; Pro(4,4-F2) = O=C(O)[C@@H]1CC(F)(F)CN1; NMeGly(cBu) = CN[C@H](C(=O)O)C1CCC1; NMeD = CN[C@@H](CC(=O)O)C(=O)O; NMeL = CN[C@@H](CC(C)C)C(=O)O; NMeNva = CCC[C@H](NC)C(=O)O; NMeAbu = CC[C@H](NC)C(=O)O; Morpholide = C1CN(*)CCO1; NMeA = CN[C@@H](C)C(=O)O; Ac5c = NC1(C(=O)O)CCCC1; Aze = O=C(O)[C@@H]1CCN1; Ac4c = NC1(C(=O)O)CCC1; Sar = CNCC(=O)O
# What was measured:
# [1] = biological target: GDP-bound NRAS wild-type protein (Homo sapiens, UniProt P01111); experiment: Binding to NRAS by surface plasmon resonance (SPR), Single Cycle Kinetics; conditions: KD ratio NRAS/KRAS, SPR
# [2] = biological target: GDP-bound HRAS wild-type protein (Homo sapiens, UniProt P01112); experiment: Binding to HRAS by surface plasmon resonance (SPR), Single Cycle Kinetics; conditions: KD ratio HRAS/KRAS, SPR
# Sequence of GDP-bound HRAS wild-type protein (P01112 whole entry): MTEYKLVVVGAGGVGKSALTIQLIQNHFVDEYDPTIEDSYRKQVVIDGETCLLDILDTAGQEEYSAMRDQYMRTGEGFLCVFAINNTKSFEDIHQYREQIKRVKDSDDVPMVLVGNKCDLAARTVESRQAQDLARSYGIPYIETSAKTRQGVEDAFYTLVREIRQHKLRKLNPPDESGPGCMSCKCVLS
# Sequence of GDP-bound NRAS wild-type protein (P01111 whole entry): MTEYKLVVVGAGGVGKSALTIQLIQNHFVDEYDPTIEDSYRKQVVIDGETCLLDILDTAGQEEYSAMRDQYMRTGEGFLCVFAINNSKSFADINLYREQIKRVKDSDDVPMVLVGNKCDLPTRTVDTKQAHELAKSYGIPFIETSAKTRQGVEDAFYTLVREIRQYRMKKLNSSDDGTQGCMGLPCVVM
SMILES,NRAS/KRAS (ratio of KD for GDP-bound NRAS wild-type to KD for KRAS) [1],HRAS/KRAS (ratio of KD for GDP-bound HRAS wild-type to KD for KRAS) [2]
"CCCN1C(=O)[C@@H]2CCN2C(=O)[C@H](C)N(C)C(=O)[C@H]([C@@H](C)CC)NC(=O)[C@H](CC(C)C)N(C)C(=O)C[C@@H](C(=O)N2CCOCC2)N(C)C(=O)[C@H](C2CCCC2)N(C)C(=O)C2(CCCC2)NC(=O)[C@@H]2CC(F)(F)CN2C(=O)[C@H](CCc2ccc(C(F)(F)F)c(Cl)c2)NC(=O)CN(C)C(=O)[C@@H]1Cc1ccc(C(F)(F)F)cc1 [PP0196] ([NMeL]I[NMeA][Aze][NPrPhe(4-CF3)][Sar][hPhe(3-Cl-4-CF3)][Pro(4,4-F2)][Ac5c][NMeGly(cPent)][NMeD]-Morpholide; lactam N-11)",C (A compound having a KD ratio of 0.1 or more and less than 3 is denoted as C),C (A compound having a KD ratio of 0.1 or more and less than 3 is denoted as C)
CCCN1C(=O)CN(C)C(=O)CN(C)C(=O)[C@H]([C@@H](C)CC)NC(=O)[C@H](CC(C)C)N(C)C(=O)C[C@@H](C(=O)N2CCOCC2)N(C)C(=O)[C@H](C2CCCC2)N(C)C(=O)C2(CCC2)NC(=O)[C@@H]2CCCN2C(=O)[C@H](CCc2ccc(C(F)(F)F)c(Cl)c2)NC(=O)CN(C)C(=O)[C@@H]1Cc1ccc(C(F)(F)F)cc1 [PP0197] ([NMeL]I[Sar][Sar][NPrPhe(4-CF3)][Sar][hPhe(3-Cl-4-CF3)]P[Ac4c][NMeGly(cPent)][NMeD]-Morpholide; lactam N-11),B (a compound having 3 or more and less than 10 is denoted as B),C (A compound having a KD ratio of 0.1 or more and less than 3 is denoted as C)
CCCN1C(=O)[C@@H]2CCN2C(=O)[C@H](C)N(C)C(=O)[C@H]([C@@H](C)CC)NC(=O)[C@H](CC(C)C)N(C)C(=O)C[C@@H](C(=O)N2CCOCC2)N(C)C(=O)[C@H](C2CCCC2)N(C)C(=O)C2(CCC2)NC(=O)[C@@H]2CCCN2C(=O)[C@H](CCc2ccc(C(F)(F)F)c(Cl)c2)NC(=O)CN(C)C(=O)[C@@H]1Cc1ccc(C(F)(F)F)cc1 [PP0198] ([NMeL]I[NMeA][Aze][NPrPhe(4-CF3)][Sar][hPhe(3-Cl-4-CF3)]P[Ac4c][NMeGly(cPent)][NMeD]-Morpholide; lactam N-11),C (A compound having a KD ratio of 0.1 or more and less than 3 is denoted as C),B (a compound having 3 or more and less than 10 is denoted as B)
"CCCN1C(=O)CN(C)C(=O)CN(C)C(=O)[C@H]([C@@H](C)CC)NC(=O)[C@H](CC(F)(F)F)N(C)C(=O)C[C@@H](C(=O)N2CCOCC2)N(C)C(=O)[C@H](C2CCCC2)N(C)C(=O)C2(CCCC2)NC(=O)[C@@H]2CC(F)(F)CN2C(=O)[C@H](CCc2ccc(C(F)(F)F)c(Cl)c2)NC(=O)CN(C)C(=O)[C@@H]1Cc1ccc(C(F)(F)F)cc1 [PP0199] ([NMeAbu(4,4,4-F3)]I[Sar][Sar][NPrPhe(4-CF3)][Sar][hPhe(3-Cl-4-CF3)][Pro(4,4-F2)][Ac5c][NMeGly(cPent)][NMeD]-Morpholide; lactam N-11)",B (a compound having 3 or more and less than 10 is denoted as B),C (A compound having a KD ratio of 0.1 or more and less than 3 is denoted as C)
"CCCN1C(=O)CN(C)C(=O)CN(C)C(=O)[C@H]([C@@H](C)CC)NC(=O)[C@H](C2CCC2)N(C)C(=O)C[C@@H](C(=O)N2CCOCC2)N(C)C(=O)[C@H](C2CCCC2)N(C)C(=O)C2(CCCC2)NC(=O)[C@@H]2CC(F)(F)CN2C(=O)[C@H](CCc2ccc(C(F)(F)F)c(Cl)c2)NC(=O)CN(C)C(=O)[C@@H]1Cc1ccc(C(F)(F)F)cc1 [PP0200] ([NMeGly(cBu)]I[Sar][Sar][NPrPhe(4-CF3)][Sar][hPhe(3-Cl-4-CF3)][Pro(4,4-F2)][Ac5c][NMeGly(cPent)][NMeD]-Morpholide; lactam N-11)",C (A compound having a KD ratio of 0.1 or more and less than 3 is denoted as C),C (A compound having a KD ratio of 0.1 or more and less than 3 is denoted as C)
"CCC[C@H]1C(=O)N[C@@H]([C@@H](C)CC)C(=O)N(C)CC(=O)N(C)CC(=O)N(CCC)[C@@H](Cc2ccc(C(F)(F)F)cc2)C(=O)N(C)CC(=O)N[C@@H](CCc2ccc(C(F)(F)F)c(Cl)c2)C(=O)N2CC(F)(F)C[C@H]2C(=O)NC2(CCCC2)C(=O)N(C)[C@@H](C2CCCC2)C(=O)N(C)[C@H](C(=O)N2CCOCC2)CC(=O)N1C [PP0201] ([NMeNva]I[Sar][Sar][NPrPhe(4-CF3)][Sar][hPhe(3-Cl-4-CF3)][Pro(4,4-F2)][Ac5c][NMeGly(cPent)][NMeD]-Morpholide; lactam N-11)",B (a compound having 3 or more and less than 10 is denoted as B),C (A compound having a KD ratio of 0.1 or more and less than 3 is denoted as C)
"CCCN1C(=O)CN(C)C(=O)CN(C)C(=O)[C@H]([C@@H](C)CC)NC(=O)[C@H](CC)N(C)C(=O)C[C@@H](C(=O)N2CCOCC2)N(C)C(=O)[C@H](C2CCCC2)N(C)C(=O)C2(CCCC2)NC(=O)[C@@H]2CC(F)(F)CN2C(=O)[C@H](CCc2ccc(C(F)(F)F)c(Cl)c2)NC(=O)CN(C)C(=O)[C@@H]1Cc1ccc(C(F)(F)F)cc1 [PP0202] ([NMeAbu]I[Sar][Sar][NPrPhe(4-CF3)][Sar][hPhe(3-Cl-4-CF3)][Pro(4,4-F2)][Ac5c][NMeGly(cPent)][NMeD]-Morpholide; lactam N-11)",B (a compound having 3 or more and less than 10 is denoted as B),C (A compound having a KD ratio of 0.1 or more and less than 3 is denoted as C)
"CCCN1C(=O)[C@@H]2CCN2C(=O)[C@H](C)N(C)C(=O)[C@H]([C@@H](C)CC)NC(=O)[C@H](CC(F)(F)F)N(C)C(=O)C[C@@H](C(=O)N2CCOCC2)N(C)C(=O)[C@H](C2CCCC2)N(C)C(=O)C2(CCCC2)NC(=O)[C@@H]2CC(F)(F)CN2C(=O)[C@H](CCc2ccc(C(F)(F)F)c(Cl)c2)NC(=O)CN(C)C(=O)[C@@H]1Cc1ccc(C(F)(F)F)cc1 [PP0203] ([NMeAbu(4,4,4-F3)]I[NMeA][Aze][NPrPhe(4-CF3)][Sar][hPhe(3-Cl-4-CF3)][Pro(4,4-F2)][Ac5c][NMeGly(cPent)][NMeD]-Morpholide; lactam N-11)",C (A compound having a KD ratio of 0.1 or more and less than 3 is denoted as C),C (A compound having a KD ratio of 0.1 or more and less than 3 is denoted as C)
"CCCN1C(=O)[C@@H]2CCN2C(=O)[C@H](C)N(C)C(=O)[C@H]([C@@H](C)CC)NC(=O)[C@H](C2CCC2)N(C)C(=O)C[C@@H](C(=O)N2CCOCC2)N(C)C(=O)[C@H](C2CCCC2)N(C)C(=O)C2(CCCC2)NC(=O)[C@@H]2CC(F)(F)CN2C(=O)[C@H](CCc2ccc(C(F)(F)F)c(Cl)c2)NC(=O)CN(C)C(=O)[C@@H]1Cc1ccc(C(F)(F)F)cc1 [PP0204] ([NMeGly(cBu)]I[NMeA][Aze][NPrPhe(4-CF3)][Sar][hPhe(3-Cl-4-CF3)][Pro(4,4-F2)][Ac5c][NMeGly(cPent)][NMeD]-Morpholide; lactam N-11)",C (A compound having a KD ratio of 0.1 or more and less than 3 is denoted as C),C (A compound having a KD ratio of 0.1 or more and less than 3 is denoted as C)
